Results as given in patent publication US20100331233A1, “CRYSTAL OF XPA AND ERCC1 COMPLEX AND USES THEREOF” (priority 2007, published 2010).
{FAM} = 6-carboxyfluorescein (6-FAM) label

Experiments:
[1] = molecular target: T1, central domain of ERCC1 (ERCC196-214) (Homo sapiens, UniProt P07992); details: Tsodikov et al., 2005; direct titration; read-out: equilibrium binding constant for DNA binding to the central domain of ERCC1; cited from earlier work
T1 construct: His6 (N); made in house; host or cells: E. coli BL21(DE3)
T1 sequence (P07992 96-214): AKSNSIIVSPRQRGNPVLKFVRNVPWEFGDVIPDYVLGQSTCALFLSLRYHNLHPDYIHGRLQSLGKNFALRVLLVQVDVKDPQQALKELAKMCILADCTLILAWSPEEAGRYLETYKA

[2] = tested on: NER activity in XP-A (XP2OS) cell extracts; assay: In vitro NER assay in XP-A (XP2OS) cell extract supplemented with wild-type or mutant XPA protein; type: biochemical; details: XPA-deficient cell extract, 200 and 800 nM XPA, cisplatin crosslink plasmid
Excerpt: In Vitro NER assay. […] The wild-type, […], […] and […]/[…]

DNA three-way junction = assay: DNA binding assay (band shift) with 5'-labeled DNA three-way junction; details: 1 nM DNA, 4-150 nM XPA
Experimental: DNA binding assays. The three-way junction DNA substrate described previously (substrate 7 in Table 1 of Hohl et al., 2003, J. Biol. Chem., 278, 19500-19508) was 5′-^32P-end labeled and incubated at 1 nM concentration with various amounts of XPA in EMSA buffer (25 mM Hepes·KOH pH 8.0, 30 mM KCl, 10% glycerol, 1 mM DTT, 1 mM EDTA, 0.1 mg/ml BSA) at a reaction volume of 15 μl. After equilibration at room temperature for 30 min, the samples were loaded on a 5% (37.5:1) native polyacrylamide gel containing 0.5×TBE and electrophoresed at 90 V for 2 hrs. Gels were dried and the radioactive bands visualized by autoradiography.

[3] = molecular target: T2, ERCC1 central domain (ERCC1 96-214 / 92-214) (Homo sapiens, UniProt P07992 SEQ:96-214); assay: FP; 2.33 uM ERCC1, 50 nM DNA; XPA67-80 peptide competes (EC50 micromolar); 20 mM Tris pH 8.0, 20 mM NaCl, 2 mM bME; details: tags: N-terminal His6; label: 5' 6-FAM
T2 sequence: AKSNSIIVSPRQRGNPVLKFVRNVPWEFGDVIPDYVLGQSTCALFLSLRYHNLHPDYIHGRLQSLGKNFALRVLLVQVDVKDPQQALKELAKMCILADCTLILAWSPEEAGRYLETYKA

[4] = molecular target: T3, XPA67-80 peptide (KIIDTGGGFILEEE) (Homo sapiens, UniProt P23025 SEQ:67-80); assay: FP; peptide does not detectably bind DNA (data not shown); nonspecific anisotropy increase and quenching above 30 uM; details: protein: synthetic; tags: synthetic peptide, solid phase, HPLC-purified; label: 5' 6-FAM
T3 chain: KIIDTGGGFILEEE

For “DNA: 5' 6-FAM-labeled single-stranded 40mer DNA, 5'-CCGGTGGCCAGCGCTCGGCG(T)20 (DNA CCGGTGGCCAGCGCTCGGCGTTTTTTTTTTTTTTTTTTTT; DNA, 5' {FAM}, backbone not given here)”, the Kd [1] is given as 1500 nM.

For “XPA-WT: purified full length wild-type XPA protein expressed in E. coli”, the “NER activity restored by XPA protein” value [2] was “robust NER activity” and the “binding to DNA three-way junction” value (DNA three-way junction) was “bound with similar affinity”.

CCGGTGGCCAGCGCTCGGCGTTTTTTTTTTTTTTTTTTTT (ssDNA) [6FAM-labeled 40mer ssDNA]: binds [3]; no binding [4].
